Laboratory results from PubChem BioAssay (NCI).
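Five concentrations, 48 hours, 96-well plates. TGI denotes the concentration required for complete inhibition of growth.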

Assays:
Experiment in all cases: inhibition of tumour cell growth, NCI panel, 48 h
HS 578T breast = system: HS 578T breast
SF-268 CNS = system: SF-268 CNS
NCI/ADR-RES ovarian = system: NCI/ADR-RES ovarian
EKVX NSCLC = system: EKVX NSCLC
SNB-19 CNS = system: SNB-19 CNS
MDA-N = system: MDA-N
UO-31 renal = system: UO-31 renal
M14 melanoma = system: M14 melanoma
MALME-3M melanoma = system: MALME-3M melanoma
SK-OV-3 ovarian = system: SK-OV-3 ovarian
IGROV1 ovarian = system: IGROV1 ovarian

CC(=Nc1ccc(Cl)cc1)c1ccncc1
TGI (HS 578T breast): > 100 µM | TGI (SF-268 CNS): > 100 µM | TGI (NCI/ADR-RES ovarian): > 100 µM | TGI (EKVX NSCLC): > 100 µM | TGI (SNB-19 CNS): > 100 µM | TGI (MDA-N): > 100 µM | TGI (UO-31 renal): > 100 µM | TGI (M14 melanoma): > 100 µM | TGI (MALME-3M melanoma): > 100 µM

N#Cc1ccc(C2OCC3CC=CCC3CO2)cc1 (configuration not stated)
TGI (SF-268 CNS): > 100 µM | TGI (SK-OV-3 ovarian): > 100 µM | TGI (IGROV1 ovarian): > 100 µM | TGI (EKVX NSCLC): > 100 µM | TGI (SNB-19 CNS): > 100 µM | TGI (UO-31 renal): > 100 µM | TGI (M14 melanoma): > 100 µM | TGI (MALME-3M melanoma): > 100 µM

O=C(Nn1c(-c2ccccc2)nc2ccccc2c1=O)c1cccc([N+](=O)[O-])c1
TGI (HS 578T breast): > 100 µM | TGI (SF-268 CNS): > 100 µM | TGI (SK-OV-3 ovarian): > 100 µM | TGI (IGROV1 ovarian): > 100 µM | TGI (EKVX NSCLC): > 100 µM | TGI (SNB-19 CNS): > 100 µM | TGI (MDA-N): > 100 µM | TGI (UO-31 renal): > 100 µM | TGI (M14 melanoma): > 100 µM

Nc1c(F)c(F)c2c(c1F)N(CCCCCl)c1ccccc1S2
TGI (HS 578T breast): > 100 µM | TGI (SF-268 CNS): > 100 µM | TGI (SK-OV-3 ovarian): > 100 µM | TGI (IGROV1 ovarian): > 100 µM | TGI (NCI/ADR-RES ovarian): > 100 µM | TGI (SNB-19 CNS): > 100 µM | TGI (UO-31 renal): > 100 µM | TGI (M14 melanoma): > 100 µM | TGI (MALME-3M melanoma): > 100 µM

c1ccc2cc(C3NCCc4[nH]cnc43)ccc2c1 (configuration not stated)
TGI (SF-268 CNS): > 100 µM | TGI (SK-OV-3 ovarian): > 100 µM | TGI (IGROV1 ovarian): > 100 µM | TGI (UO-31 renal): > 100 µM | TGI (M14 melanoma): > 100 µM

CCOC(=O)/C(C1=NCCN1C)=C(\O)c1ccccc1
TGI (SF-268 CNS): > 100 µM | TGI (IGROV1 ovarian): > 100 µM | TGI (EKVX NSCLC): > 100 µM | TGI (SNB-19 CNS): > 100 µM | TGI (UO-31 renal): > 100 µM | TGI (M14 melanoma): > 100 µM | TGI (MALME-3M melanoma): > 100 µM

CC1(C)N=C(C(N)=O)c2ncn(Cc3ccccc3)c2N1
TGI (HS 578T breast): > 100 µM | TGI (SF-268 CNS): > 100 µM | TGI (SK-OV-3 ovarian): > 100 µM | TGI (IGROV1 ovarian): > 100 µM | TGI (NCI/ADR-RES ovarian): > 100 µM | TGI (EKVX NSCLC): > 100 µM | TGI (SNB-19 CNS): > 100 µM | TGI (MDA-N): > 100 µM | TGI (M14 melanoma): > 100 µM | TGI (MALME-3M melanoma): > 100 µM

COc1ccc(S(=O)(=O)N/N=C(\C)CN2C(=O)c3ccccc3C2=O)cc1OC
TGI (SF-268 CNS): > 100 µM | TGI (SK-OV-3 ovarian): > 100 µM | TGI (IGROV1 ovarian): > 100 µM | TGI (EKVX NSCLC): > 100 µM | TGI (SNB-19 CNS): > 100 µM | TGI (UO-31 renal): > 100 µM | TGI (M14 melanoma): > 100 µM | TGI (MALME-3M melanoma): > 100 µM

CCC1(c2ccc(OC)c(OC)c2)CCN(S(=O)(=O)c2ccc(C)cc2)C1 (configuration not stated)
TGI (SF-268 CNS): > 100 µM | TGI (SK-OV-3 ovarian): > 100 µM | TGI (IGROV1 ovarian): > 100 µM | TGI (NCI/ADR-RES ovarian): > 100 µM | TGI (EKVX NSCLC): > 100 µM | TGI (SNB-19 CNS): > 100 µM | TGI (MDA-N): > 100 µM | TGI (UO-31 renal): > 100 µM | TGI (M14 melanoma): > 100 µM

Cc1cc2c(cc1Cl)SC(NNCCO)=NS2(=O)=O
TGI (HS 578T breast): > 100 µM | TGI (SF-268 CNS): > 100 µM | TGI (SK-OV-3 ovarian): > 100 µM | TGI (IGROV1 ovarian): > 100 µM | TGI (NCI/ADR-RES ovarian): > 100 µM | TGI (EKVX NSCLC): > 100 µM | TGI (SNB-19 CNS): > 100 µM | TGI (UO-31 renal): > 100 µM | TGI (M14 melanoma): > 100 µM

CC(CC(=O)N1C2CC3CCC2(CS1(=O)=O)C3(C)C)[Si](C)(C)C (configuration not stated)
TGI (HS 578T breast): > 100 µM | TGI (SF-268 CNS): > 100 µM | TGI (IGROV1 ovarian): > 100 µM | TGI (NCI/ADR-RES ovarian): > 100 µM | TGI (EKVX NSCLC): > 100 µM | TGI (SNB-19 CNS): > 100 µM | TGI (MDA-N): > 100 µM | TGI (UO-31 renal): > 100 µM | TGI (M14 melanoma): > 100 µM | TGI (MALME-3M melanoma): > 100 µM

CC1(C)CC(=O)c2c(-c3ccc(Cl)cc3)c(C#N)c(=S)n(C3OC(CO)C(O)C(O)C3O)c2C1 (configuration not stated)
TGI (HS 578T breast): > 100 µM | TGI (SF-268 CNS): > 100 µM | TGI (IGROV1 ovarian): > 100 µM | TGI (NCI/ADR-RES ovarian): > 100 µM | TGI (SNB-19 CNS): > 100 µM | TGI (MDA-N): 58.3 µM | TGI (UO-31 renal): 98.8 µM | TGI (M14 melanoma): > 100 µM | TGI (MALME-3M melanoma): > 100 µM

COc1nc(=O)[nH]c2c1C(c1ccc([N+](=O)[O-])cc1)c1c(OC)nc(=O)[nH]c1O2
TGI (HS 578T breast): > 100 µM | TGI (SF-268 CNS): > 100 µM | TGI (SK-OV-3 ovarian): > 100 µM | TGI (IGROV1 ovarian): > 100 µM | TGI (NCI/ADR-RES ovarian): > 100 µM | TGI (EKVX NSCLC): > 100 µM | TGI (SNB-19 CNS): > 100 µM | TGI (MDA-N): > 100 µM | TGI (UO-31 renal): > 100 µM | TGI (M14 melanoma): > 100 µM

CC(C)CCNC(=O)c1ccc(CNC(=O)/C=C/c2ccc3ccccc3c2)cc1
TGI (SF-268 CNS): > 100 µM | TGI (SK-OV-3 ovarian): > 100 µM | TGI (NCI/ADR-RES ovarian): > 100 µM | TGI (EKVX NSCLC): > 100 µM | TGI (SNB-19 CNS): > 100 µM | TGI (MDA-N): > 100 µM | TGI (UO-31 renal): > 100 µM | TGI (M14 melanoma): > 100 µM

O=c1[nH][nH]c(=O)n1Cc1ccccc1
TGI (HS 578T breast): > 100 µM | TGI (SF-268 CNS): > 100 µM | TGI (SK-OV-3 ovarian): > 100 µM | TGI (NCI/ADR-RES ovarian): > 100 µM | TGI (EKVX NSCLC): > 100 µM | TGI (SNB-19 CNS): > 100 µM | TGI (MDA-N): > 100 µM | TGI (UO-31 renal): > 100 µM | TGI (M14 melanoma): > 100 µM | TGI (MALME-3M melanoma): > 100 µM

N#CCCC(C#N)(C#N)CCC#N
TGI (SF-268 CNS): > 100 µM | TGI (SK-OV-3 ovarian): > 100 µM | TGI (IGROV1 ovarian): > 100 µM | TGI (EKVX NSCLC): > 100 µM | TGI (SNB-19 CNS): > 100 µM | TGI (UO-31 renal): > 100 µM | TGI (M14 melanoma): > 100 µM | TGI (MALME-3M melanoma): > 100 µM

COc1ccccc1N1CCN(S(=O)(=O)c2ccc(Cl)cc2)C1=N
TGI (HS 578T breast): > 100 µM | TGI (SF-268 CNS): > 100 µM | TGI (SK-OV-3 ovarian): > 100 µM | TGI (NCI/ADR-RES ovarian): > 100 µM | TGI (EKVX NSCLC): > 100 µM | TGI (SNB-19 CNS): > 100 µM | TGI (MDA-N): > 100 µM | TGI (UO-31 renal): > 100 µM | TGI (M14 melanoma): > 100 µM

O=c1cccccc1[O-].O=c1cccccc1[O-].O=c1cccccc1[O-].[Nd+3]
TGI (SK-OV-3 ovarian): > 100 µM | TGI (IGROV1 ovarian): > 100 µM | TGI (EKVX NSCLC): > 100 µM | TGI (SNB-19 CNS): > 100 µM | TGI (UO-31 renal): > 100 µM | TGI (M14 melanoma): 87 µM | TGI (MALME-3M melanoma): > 100 µM

COP12(OC)NC(=O)OC1(C(F)(F)F)c1ccccc1O2 (configuration not stated)
TGI (SF-268 CNS): > 100 µM | TGI (SK-OV-3 ovarian): > 100 µM | TGI (IGROV1 ovarian): > 100 µM | TGI (SNB-19 CNS): > 100 µM | TGI (M14 melanoma): > 100 µM | TGI (MALME-3M melanoma): > 100 µM

Cc1c2c(n3c(nc4ccccc43)c1C#N)N(c1ccc(F)cc1)CC2
TGI (HS 578T breast): > 100 µM | TGI (SF-268 CNS): > 100 µM | TGI (SK-OV-3 ovarian): > 100 µM | TGI (IGROV1 ovarian): > 100 µM | TGI (NCI/ADR-RES ovarian): > 100 µM | TGI (SNB-19 CNS): > 100 µM | TGI (UO-31 renal): > 100 µM | TGI (MALME-3M melanoma): > 100 µM

Cc1n[nH]c(=O)n1/N=C/c1ccco1
TGI (HS 578T breast): > 100 µM | TGI (SF-268 CNS): > 100 µM | TGI (SK-OV-3 ovarian): > 100 µM | TGI (NCI/ADR-RES ovarian): > 100 µM | TGI (EKVX NSCLC): > 100 µM | TGI (SNB-19 CNS): > 100 µM | TGI (UO-31 renal): > 100 µM | TGI (M14 melanoma): > 100 µM | TGI (MALME-3M melanoma): > 100 µM

Cc1ccccc1N(CCC#N)C1=NN(C(=O)CC(=O)Nc2ccc(Cl)cc2)C(c2ccccc2)C1 (configuration not stated)
TGI (SF-268 CNS): > 100 µM | TGI (SK-OV-3 ovarian): > 100 µM | TGI (IGROV1 ovarian): > 100 µM | TGI (EKVX NSCLC): > 100 µM | TGI (SNB-19 CNS): > 100 µM | TGI (UO-31 renal): > 100 µM | TGI (M14 melanoma): > 100 µM | TGI (MALME-3M melanoma): > 100 µM

COc1cc(C2C(C(=O)NCc3ccccc3)=C(C)NC(C)=C2C(=O)NCc2ccccc2)ccc1O
TGI (SF-268 CNS): > 100 µM | TGI (IGROV1 ovarian): > 100 µM | TGI (EKVX NSCLC): > 100 µM | TGI (SNB-19 CNS): > 100 µM | TGI (UO-31 renal): > 100 µM | TGI (M14 melanoma): > 100 µM | TGI (MALME-3M melanoma): > 100 µM

CCOC(=O)c1ccc(N=C2Sc3nc4ccccc4n3C2=Nc2ccc(C(=O)OCC)cc2)cc1
TGI (HS 578T breast): 75.5 µM | TGI (SF-268 CNS): 84.3 µM | TGI (SK-OV-3 ovarian): > 100 µM | TGI (IGROV1 ovarian): 60.4 µM | TGI (NCI/ADR-RES ovarian): 72.7 µM | TGI (EKVX NSCLC): > 100 µM | TGI (SNB-19 CNS): 25.2 µM | TGI (MDA-N): 65 µM | TGI (M14 melanoma): 37.1 µM | TGI (MALME-3M melanoma): 51.8 µM
